# According to patent US10793514B2, “Glutamine transport inhibitors and methods for treating cancer” (Vanderbilt University, priority 2016, dated 2020):
# Test system: HT29 (BRAF V600E) cell-line xenografts
# Test: HT29 xenograft chronic exposure study
# Assay type: in vivo, mouse
# Settings: 75 mg/kg per day, 21 days
# Experimental: Tissues were sectioned (5 μm thickness) and stained for pS6 (Cell Signaling, #4858) and caspase 3 (Cell Signaling #9661). Tissue slides were imaged at 20× magnification.
# For in vivo studies, cell-line xenograft tumors were propagated in 6-week old, female athymic nude mice from immortalized cell lines. For HCC-1806 (10×10^6 cells), HCT-116 (5×10^6), and HT29 (10×10^6) cells were injected. Palpable tumors were typically visible within 2-3 weeks. For imaging studies (HCC-1806), tumors were propagated to approximately 500 mm^3. For treatment studies (HCT-116, HT29) tumors were propagated to approximately 200 mm^3 prior to therapy and were randomly assigned into treated and untreated cohorts. For generating the PDX, primary tumor tissue was obtained form a patient at Vanderbilt University Medical Center under an IRB approved protocol. The tumor tissue was genotyped within the VANTAGE core facility. Xenograft was generated as previously described 41. Briefly, tumor tissues were sectioned into approximately 125 cubic millimeter pieces then implanted subcutaneously without further manipulation. […] Tumor volumes were measured manually using calipers every third day and quantified using the formula V=W·L·(H/2).
compound,measurement,setting,value
Cc1cccc(COc2ccccc2CN(CCC(N)C(=O)O)Cc2ccccc2OCc2cccc(C)c2)c1 (stereo not drawn) [Compound V-9302],cleaved caspase 3 in tumor tissue,IHC,elevated levels of cleaved caspase 3
same,pS6 in tumor tissue,IHC,significantly decreased pS6
same,tumor growth,vs vehicle,prevented tumor growth
